Reference: patent publication US8093288B2, “Genipin derivatives and uses thereof” (Beth Israel Deaconess Medical Center, priority 2003, dated 2012)

Experiments:
[1] = system: WT mice on chow diet, WT mice on high fat diet, ob/ob mice; assay: Serum insulin in vivo after genipin injection in WT (chow, HFD) and ob/ob mice; conditions: WT chow (6 hours fasting, 10 mg/kg), WT HFD (20 hours fasting, 10 mg/kg), ob/ob (20 hours fasting, 20 mg/kg); injected; FIGS. 13A-C
Description: (§1) UCP2-deficient mice have increased serum insulin levels. Genipin inhibits UCP2 activity, and thus should stimulate insulin secretion acutely in vivo. In the present study, the effect of genipin on insulin secretion in vivo was assessed. WT and UCP2 KO mice were fed a chow diet (FIG. 13A), or placed on a high fat diet (HFD) (FIG. 13B) (#D12331, obtained from Research Diets Inc., New Brunswick, N.J.). The fat source was coconut oil and comprised 58% of the total calories. The mice remained on the HFD for 24 weeks. Both WT and KO mice were obese (50-60 g). ob/ob mice (FIG. 13C) were obtained from The Jackson Laboratory. After 6 hours (FIG. 13A) or 20 hours (FIGS. 13B and 13C) of fasting, genipin (10 mg/kg (FIGS. 13A and 13B), or 20 mg/kg (FIG. 13C)) was injected into the mice. Serum insulin levels were measured before and after administration of genipin as indicated.

[2] = system: high fat diet-fed UCP2 knockout mice; assay: Blood glucose and insulin after genipin injection in high fat diet-fed UCP2 knockout mice; format: in vivo; conditions: high fat diet 24 weeks, 20 hours fasting, 300 μg genipin injected, thirty minutes after injection
Description: Wildtype and UCP2 knockout mice were placed on a high fat diet obtained from Research Diets Inc., New Brunswick, N.J. (cat. no. D12331, HFD). The fat source was coconut oil and comprised 58% of the total calories. The mice remained on the high fat diet for 24 weeks. After the 24 weeks, both the wildtype and the UCP2 knockout mice were obese (about 50-60 g). After 20 hours of fasting, the blood glucose and insulin levels of the mice were measured, then the mice were injected with 300 μg of genipin. Thirty minutes after injection the blood glucose and insulin levels of the mice were measured again. Blood glucose levels were assessed using a glucometer (One touch, Lifescan, Milpitas, Calif.). Serum insulin concentrations were assessed using mouse insulin as a standard (Rat Insulin ELISA Kit. cat. #INSKR020 Crystal Chem. Inc., Chicago, Ill.). […] A comparison of the effect of genipin on the blood glucose levels and insulin levels in wildtype and UCP2 knockout mice can be seen in FIGS. 7 and 10, respectively.

[3] = system: islets from ob/ob mice lacking UCP2; assay: Glucose-stimulated insulin secretion in islets from ob/ob mice lacking UCP2; format: cell-based; conditions: 5 μM genipin, FIG. 12C
Description: (§2) Pancreatic islets were isolated from WT (FIG. 12A) or UCP2 KO mice (FIG. 12B) and subjected to chronic incubations at low (5.5 mM) and high glucose (25 mM). In a separate experiment, islets were isolated from ob/ob mice (FIG. 12C). Islets were incubated for a total of 72 hours and washed, and then insulin-secretion studies were performed using three different concentrations of glucose (5.5, 12.5, and 25 mM) with or without 5 μM genipin. Results are means±SEM of four independent experiments (FIGS. 12A and 12B) or eight to twenty repeats of one representative experiment (FIG. 12C). WT islets that were chronically incubated at low glucose released increasing amounts of insulin in response to increasing concentrations of glucose (FIG. 12A, left panel). Following chronic hyperglycemia, islets increased basal insulin release, but were completely unresponsive to glucose stimulation (FIG. 12A, middle panel). […] To assess the role of genipin in hyperglycemia-induced loss of glucose responsiveness, genipin was acutely added into islets during the insulin-release phase of the study. […] Insulin secretion in islets from ob/ob mice and ob/ob mice lacking UCP2 with or without genipin was also studied. It has been reported that in ob/ob islets, UCP2 expression levels are increased compared to WT islets. […]

UCP2 KO mice = assay: Serum insulin in vivo after genipin injection in UCP2 KO mice; conditions: genipin 10 mg/kg injected, FIGS. 13A, 13B
Description: as §1

WT islets = assay: Glucose-stimulated insulin secretion in WT islets after chronic hyperglycemia; format: cell-based, mice; conditions: WT islets after 72 hours at 25 mM glucose; 5 μM genipin acutely added; 5.5, 12.5, 25 mM glucose; FIG. 12A
Description: Pancreatic islets were isolated from WT (FIG. 12A) or UCP2 KO mice (FIG. 12B) and subjected to chronic incubations at low (5.5 mM) and high glucose (25 mM). In a separate experiment, islets were isolated from ob/ob mice (FIG. 12C). Islets were incubated for a total of 72 hours and washed, and then insulin-secretion studies were performed using three different concentrations of glucose (5.5, 12.5, and 25 mM) with or without 5 μM genipin. Results are means±SEM of four independent experiments (FIGS. 12A and 12B) or eight to twenty repeats of one representative experiment (FIG. 12C). WT islets that were chronically incubated at low glucose released increasing amounts of insulin in response to increasing concentrations of glucose (FIG. 12A, left panel). Following chronic hyperglycemia, islets increased basal insulin release, but were completely unresponsive to glucose stimulation (FIG. 12A, middle panel). […] To assess the role of genipin in hyperglycemia-induced loss of glucose responsiveness, genipin was acutely added into islets during the insulin-release phase of the study.

ob/ob islets = assay: Glucose-stimulated insulin secretion in islets from ob/ob mice; format: cell-based; conditions: 5 μM genipin acutely added, FIG. 12C
Description: as §2

SMILES: COC(=O)C1=CO[C@@H](O)[C@@H]2C(CO)=CC[C@H]12 [genipin]
- serum insulin levels [1]: can increase insulin levels in all three animal models
- blood glucose levels ([2]; FIG. 6): little effect
- insulin levels ([2]; FIG. 9): little effect
- glucose sensing (glucose-stimulated insulin secretion) [3]: did not improve glucose sensing above the level seen in islets lacking UCP2 alone
- serum insulin levels (UCP2 KO mice): no effect on insulin levels
- glucose-stimulated insulin secretion (GSIS) (WT islets): prevented the hyperglycemia-induced block in GSIS
- glucose sensing (glucose-stimulated insulin secretion) (ob/ob islets): restored glucose sensing
